Source: US12534469B2 (CHILDREN'S HOSPITAL MEDICAL CENTER, priority 2020, dated 2026)
Where two headings read alike, the source gives them in different places.

Experiments:
FLT3 ITD, F691L = target: T1, FLT3 ITD, F691L (Homo sapiens, UniProt P36888, F691L/ITD); experiment: DiscoverX KINOMEscan competition binding assay, FLT3 ITD, F691L
T1 sequence (P36888 564-993 F691L): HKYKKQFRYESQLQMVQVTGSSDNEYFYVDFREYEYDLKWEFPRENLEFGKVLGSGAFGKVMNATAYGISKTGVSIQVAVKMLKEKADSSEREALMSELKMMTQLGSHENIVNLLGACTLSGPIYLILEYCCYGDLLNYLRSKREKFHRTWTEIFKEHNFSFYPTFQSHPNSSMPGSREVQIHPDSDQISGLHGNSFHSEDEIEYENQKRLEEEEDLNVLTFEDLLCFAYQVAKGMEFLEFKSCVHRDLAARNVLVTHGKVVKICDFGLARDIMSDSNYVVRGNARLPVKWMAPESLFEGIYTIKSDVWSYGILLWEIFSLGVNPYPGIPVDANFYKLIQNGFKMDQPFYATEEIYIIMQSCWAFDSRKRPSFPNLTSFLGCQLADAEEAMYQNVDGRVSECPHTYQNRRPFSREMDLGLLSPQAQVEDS
From the text: (§1) Kinase binding data were obtained for various exemplary compounds prepared according to Examples 1-25 using the DiscoverX KINOMEscan® active site-directed competition binding site-directed assay protocol described below. […] As a result, the data report thermodynamic interaction affinities (Kd values), rather than IC50 values that are dependent on ATP concentrations. The assay uses a DNA-tagged version of the protein kinase, and an immobilized ligand bound to a solid support. Compounds that directly or indirectly prevent kinase binding to the immobilized ligand reduce the amount of kinase captured on the solid support, which is detected using an ultra-sensitive qPCR method. Affinity constants reported from the assay have been reported to be independent of the immobilized ligand used that is coupled to the solid support (See supplemental information in Fabian, M. A. et. al., (2005) Nat. Biotechnol. 23, 329-336; Wodicka, L. M. et. al., (2010) Chem. Biol. 17, 1241-1249.)
(§2) Kinase-tagged T7 phage strains were prepared in an E. coli host derived from the BL21 strain. E. coli were grown to log-phase and infected with T7 phage and incubated with shaking at 32° C. until lysis. The lysates were centrifuged and filtered to remove cell debris. The remaining kinases were produced in HEK-293 cells and subsequently tagged with DNA for qPCR detection. […] The liganded beads were blocked with excess biotin and washed with blocking buffer (SeaBlock (Pierce), 1% BSA, 0.05% Tween 20, 1 mM DTT) to remove unbound ligand and to reduce non-specific binding. […] Test compounds were prepared as 111× stocks in 100% DMSO. Kds were determined using an 11-point 3-fold compound dilution series with three DMSO control points. […] The compounds were then diluted directly into the assays such that the final concentration of DMSO was 0.9%. All reactions were performed in polypropylene 384-well plates. Each was a final volume of 0.02 mL. […] The kinase concentration in the eluates was measured by qPCR.
(§3) Binding constants (Kds) were calculated with a standard dose-response curve using the Hill equation. […]

FLT3 K663Q = target: T2, FLT3 K663Q (Homo sapiens, UniProt P36888, K663Q); experiment: DiscoverX KINOMEscan competition binding assay, FLT3 K663Q
T2 construct: purchased DiscoverX (KINOMEscan); host or cells: E. coli (T7 phage) or HEK-293
T2 sequence (P36888 27-993 K663Q): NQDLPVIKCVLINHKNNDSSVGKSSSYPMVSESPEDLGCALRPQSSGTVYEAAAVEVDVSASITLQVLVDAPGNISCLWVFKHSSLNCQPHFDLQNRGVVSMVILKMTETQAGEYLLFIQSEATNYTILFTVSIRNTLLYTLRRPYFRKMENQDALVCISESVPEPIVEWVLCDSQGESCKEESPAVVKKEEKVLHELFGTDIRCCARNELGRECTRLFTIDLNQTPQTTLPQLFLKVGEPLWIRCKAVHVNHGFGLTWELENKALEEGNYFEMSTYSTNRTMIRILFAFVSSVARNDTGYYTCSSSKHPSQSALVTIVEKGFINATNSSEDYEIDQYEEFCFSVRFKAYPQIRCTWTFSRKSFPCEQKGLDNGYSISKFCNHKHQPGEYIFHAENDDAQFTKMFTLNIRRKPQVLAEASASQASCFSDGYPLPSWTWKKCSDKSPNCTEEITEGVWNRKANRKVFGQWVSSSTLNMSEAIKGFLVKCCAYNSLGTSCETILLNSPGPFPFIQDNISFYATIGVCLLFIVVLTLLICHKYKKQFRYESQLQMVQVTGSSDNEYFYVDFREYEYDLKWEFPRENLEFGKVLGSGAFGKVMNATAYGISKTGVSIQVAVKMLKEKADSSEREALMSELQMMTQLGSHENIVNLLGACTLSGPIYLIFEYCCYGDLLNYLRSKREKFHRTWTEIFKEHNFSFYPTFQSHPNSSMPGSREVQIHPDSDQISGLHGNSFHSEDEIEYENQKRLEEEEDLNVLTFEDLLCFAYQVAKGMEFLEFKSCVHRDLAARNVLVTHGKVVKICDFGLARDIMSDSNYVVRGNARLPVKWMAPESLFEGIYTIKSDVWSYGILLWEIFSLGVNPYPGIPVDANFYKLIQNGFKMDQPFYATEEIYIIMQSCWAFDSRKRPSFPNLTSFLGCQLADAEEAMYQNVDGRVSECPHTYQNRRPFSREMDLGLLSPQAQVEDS
From the text: as §1, §2, §3

Kd (FLT3 ITD, F691L) | Kd (FLT3 K663Q) | Kd (FLT3 ITD, F691L; read-out: FLT3 ITD, F691L Kd) | Compound
0.37 nM | 0.6 nM |  | COc1cc2ncc(-c3cccc(N[C@H]4CNC[C@@H]4F)n3)n2nc1C1CC1 [Compound 96, 6-(6-cyclopropyl-7-methoxyimidazo[1,2-b]pyridazin-3-yl)-N-((3S,4S)-4-fluoropyrrolidin-3-yl)pyridin-2-amine]
 | 1.4 nM | 0.19 nM | COc1cc2ncc(-c3cccc(N[C@@H]4CCNC4)n3)n2nc1C1CC1 [Compound 97, (R)-6-(6-cyclopropyl-7-methoxyimidazo[1,2-b]pyridazin-3-yl)-N-(pyrrolidin-3-yl)pyridin-2-amine]
 | 0.37 nM | 0.14 nM | COc1cc2ncc(-c3cccc(N[C@H]4CNCC[C@@H]4F)n3)n2nc1C1CC1 [Compound 102, 6-(6-cyclopropyl-7-methoxyimidazo[1,2-b]pyridazin-3-yl)-N-((3S,4S)-4-fluoropiperidin-3-yl)pyridin-2-amine]
